System: dynamin-dynamin interactions
Experiment: FLIM analysis of dynamin-dynamin interactions (self-assembly) in podocytes
Type: cell-based, mouse
Settings: in ps
How it was run: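 Dynamin overexpressed in podocytes by adenovirus. Fixed cells stained with equal amounts of anti-dynamin monoclonal antibodies conjugated to Alexa-488 (donor) or Alexa-568 (acceptor). Self-assembly scored by FRET-shortened Alexa-488 fluorescence lifetime (acceptor within ≈100 Å).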

[1] = Table 1, donor GTPase-Alexa488, acceptor Hudy1-Alexa568, podocytes overexpressing the dynamin variant
[2] = Table 4, donor GTPase-a488, acceptor Hudy1-a568

Row | Molecule | Mean Lifetime (γ1) [1] | Mean Lifetime (γ1) (Table 4, donor GTPase-a488, acceptor GTPase-a568) | Mean Lifetime (γ1) [2]
1 | dynWT: wild type dynamin overexpressed by adenovirus or delivered as dynamin 1 cDNA | 2212 ± 65 | 2423 ± 46 | 2254 ± 60
2 | dynK44A: dominant-negative dynamin mutant that cannot bind GTP (protein, UniProt Q05193 1-864, looked up, variant K44A) Dynamin-1: MGNRGMEDLIPLVNRLQDAFSAIGQNADLDLPQIAVVGGQSAGASSVLENFVGRDFLPRGSGIVTRRPLVLQLVNATTEYAEFLHCKGKKFTDFEEVRLEIEAETDRVTGTNKGISPVPINLRVYSPHVLNLTLVDLPGMTKVPVGDQPPDIEFQIRDMLMQFVTKENCLILAVSPANSDLANSDALKVAKEVDPQGQRTIGVITKLDLMDEGTDARDVLENKLLPLRRGYIGVVNRSQKDIDGKKDITAALAAERKFFLSHPSYRHLADRMGTPYLQKVLNQQLTNHIRDTLPGLRNKLQSQLLSIEKEVEEYKNFRPDDPARKTKALLQMVQQFAVDFEKRIEGSGDQIDTYELSGGARINRIFHERFPFELVKMEFDEKELRREISYAIKNIHGIRTGLFTPDMAFETIVKKQVKKIREPCLKCVDMVISELISTVRQCTKKLQQYPRLREEMERIVTTHIREREGRTKEQVMLLIDIELAYMNTNHEDFIGFANAQQRSNQMNKKKTSGNQDEILVIRKGWLTINNIGIMKGGSKEYWFVLTAENLSWYKDDEEKEKKYMLSVDNLKLRDVEKGFMSSKHIFALFNTEQRNVYKDYRQLELACETQEEVDSWKASFLRAGVYPERVGDKEKASETEENGSDSFMHSMDPQLERQVETIRNLVDSYMAIVNKTVRDLMPKTIMHLMINNTKEFIFSELLANLYSCGDQNTLMEESAEQAQRRDEMLRMYHALKEALSIIGDINTTTVSTPMPPPVDDSWLQVQSVPAGRRSPTSSPTPQRRAPAVPPARPGSRGPAPGPPPAGSALGGAPPVPSRPGASPDPFGPPPQVPSRPNRAPPGVPSRSGQASPSRPESPRPPFDL | – | – | 2515 ± 43
3 | dynR725A: dynamin mutant (SEQ ID NO.4) with impaired GTP hydrolysis capacity (protein, listed as Homo sapiens) MGNRGMEDLIPLVNRLQDAFSAIGQNADLDLPQIAVVGGQSAGKSSVLENFVGRDFLPRGSGIVTRRPLVLQLVNATTEYAEFLHCKGKKFTDFEEVRLEIEAETDRVTGTNKGISPVPINLRVYSPHVLNLTLVDLPGMTKVPVGDQPPDIEFQIRDMLMQFVTKENCLILAVSPANSDLANSDALKVAKEVDPQGQRTIGVITKLDLMDEGTDARDVLENKLLPLRRGYIGVVNRSQKDIDGKKDITAALAAERKFFLSHPSYRHLADRMGTPYLQKVLNQQLTNHIRDTLPGLRNKLQSQLLSIEKEVEEYKNFRPDDPARKTKALLQMVQQFAVDFEKRIEGSGDQIDTYELSGGARINRIFHERFPFELVKMEFDEKELRREISYAIKNIHGIRTGLFTPDMAFETIVKKQVKKIREPCLKCVDMVISELISTVRQCTKKLQQYPRLREEMERIVTTHIREREGRTKEQVMLLIDIELAYMNTNHEDFIGFANAQQRSNQMNKKKTSGNQDEILVIRKGWLTINNIGIMKGGSKEYWFVLTAENLSWYKDDEEKEKKYMLSVDNLKLRDVEKGFMSSKHIFALFNTEQRNVYKDYRQLELACETQEEVDSWKASFLRAGVYPERVGDKEKASETEENGSDSFMHSMDPQLERQVETIRNLVDSYMAIVNKTVRDLMPKTIMHLMINNTKEFIFSELLANLYSCGDQNTLMEESAEQAQRADEMLRMYHALKEALSIIGDINTTTVSTPMPPPVDDSWLQVQSVPAGRRSPTSSPTPQRRAPAVPPARPGSRGPAPGPPPAGSALGGAPPVPSRPGASPDPFGPPPQVPSRPNRAPPGVPSRSGQASPSRPESPRPPFDL | 2408 ± 128 | – | –
4 | dynK694A: dominant activator dynamin mutant impaired in self-assembly (protein) MGNRGMEDLIPLVNRLQDAFSAIGQNADLDLPQIAVVGGQSAGKSSVLENFVGRDFLPRGSGIVTRRPLVLQLVNATTEYAEFLHCKGKKFTDFEEVRLEIEAETDRVTGTNKGISPVPINLRVYSPHVLNLTLVDLPGMTKVPVGDQPPDIEFQIRDMLMQFVTKENCLILAVSPANSDLANSDALKVAKEVDPQGQRTIGVITKLDLMDEGTDARDVLENKLLPLRRGYIGVVNRSQKDIDGKKDITAALAAERKFFLSHPSYRHLADRMGTPYLQKVLNQQLTNHIRDTLPGLRNKLQSQLLSIEKEVEEYKNFRPDDPARKTKALLQMVQQFAVDFEKRIEGSGDQIDTYELSGGARINRIFHERFPFELVKMEFDEKELRREISYAIKNIHGIRTGLFTPDMAFETIVKKQVKKIREPCLKCVDMVISELISTVRQCTKKLQQYPRLREEMERIVTTHIREREGRTKEQVMLLIDIELAYMNTNHEDFIGFANAQQRSNQMNKKKTSGNQDEILVIRKGWLTINNIGIMKGGSKEYWFVLTAENLSWYKDDEEKEKKYMLSVDNLKLRDVEKGFMSSKHIFALFNTEQRNVYKDYRQLELACETQEEVDSWKASFLRAGVYPERVGDKEKASETEENGSDSFMHSMDPQLERQVETIRNLVDSYMAIVNKTVRDLMPKTIMHLMINNTAEFIFSELLANLYSCGDQNTLMEESAEQAQRRDEMLRMYHALKEALSIIGDINTTTVSTPMPPPVDDSWLQVQSVPAGRRSPTSSPTPQRRAPAVPPARPGSRGPAPGPPPAGSALGGAPPVPSRPGASPDPFGPPPQVPSRPNRAPPGVPSRSGQASPSRPESPRPPFDL | – | – | 2408 ± 40
